Measured values from ChEMBL document CHEMBL4038289, “Y-shaped bis-arylethenesulfonic acid esters: Potential potent and membrane permeable protein tyrosine phosphatase 1B inhibitors” (Bioorg Med Chem Lett, 2017).

Key:
Homo sapiens [1] = organism: Homo sapiens; test: Selectivity ratio of IC50 for recombinant TCPTP (unknown origin) to IC50 for recombinant PTP1B (unknown origin) expressed in Escherichia coli
[2] = molecular target: T1, Tyrosine-protein phosphatase non-receptor type 11 (Homo sapiens, UniProt Q06124); test: Inhibition of recombinant SHP2 (unknown origin) using pNPP as substrate measured after 30 mins
T1 sequence (Q06124 whole entry): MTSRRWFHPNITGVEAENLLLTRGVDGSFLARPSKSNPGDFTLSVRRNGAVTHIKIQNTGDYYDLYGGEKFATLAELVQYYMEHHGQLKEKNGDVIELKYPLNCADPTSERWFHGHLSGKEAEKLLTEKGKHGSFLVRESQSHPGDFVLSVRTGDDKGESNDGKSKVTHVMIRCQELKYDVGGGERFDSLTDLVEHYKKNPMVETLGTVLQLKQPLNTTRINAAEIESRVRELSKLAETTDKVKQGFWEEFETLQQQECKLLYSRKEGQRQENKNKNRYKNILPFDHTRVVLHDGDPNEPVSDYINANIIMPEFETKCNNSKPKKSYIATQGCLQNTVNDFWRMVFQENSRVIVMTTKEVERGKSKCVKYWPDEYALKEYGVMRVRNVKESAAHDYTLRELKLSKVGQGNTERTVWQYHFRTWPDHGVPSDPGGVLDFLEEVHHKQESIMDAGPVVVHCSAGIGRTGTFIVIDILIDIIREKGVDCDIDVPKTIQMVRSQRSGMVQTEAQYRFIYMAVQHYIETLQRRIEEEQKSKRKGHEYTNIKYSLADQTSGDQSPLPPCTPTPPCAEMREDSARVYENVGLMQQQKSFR

[3] = Apparent permeability of compound at 20 uM at pH 7.4 after 16 hrs by PAMPA; assay type: physicochemical
[4] = molecular target: T2, Tyrosine-protein phosphatase non-receptor type 1 (Homo sapiens, UniProt P18031); test: Inhibition of recombinant PTP1B (unknown origin) expressed in Escherichia coli using pNPP as substrate measured after 30 mins
T2 sequence (P18031 whole entry): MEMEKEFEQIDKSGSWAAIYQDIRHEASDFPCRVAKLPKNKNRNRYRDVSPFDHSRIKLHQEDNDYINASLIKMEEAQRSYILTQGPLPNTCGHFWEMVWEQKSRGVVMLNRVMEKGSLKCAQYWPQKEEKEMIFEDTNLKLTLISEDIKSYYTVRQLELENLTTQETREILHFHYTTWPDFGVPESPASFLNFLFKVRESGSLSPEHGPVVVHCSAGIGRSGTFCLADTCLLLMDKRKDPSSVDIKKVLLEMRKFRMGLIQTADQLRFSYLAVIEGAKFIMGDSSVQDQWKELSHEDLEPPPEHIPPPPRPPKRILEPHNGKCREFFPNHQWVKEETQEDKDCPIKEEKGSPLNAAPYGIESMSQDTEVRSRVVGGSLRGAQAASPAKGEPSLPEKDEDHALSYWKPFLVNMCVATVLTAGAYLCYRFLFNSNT

[5] = molecular target: T3, Tyrosine-protein phosphatase non-receptor type 2 (Homo sapiens, UniProt P17706); test: Inhibition of recombinant TCPTP (unknown origin) using pNPP as substrate measured after 30 mins
T3 sequence (P17706 whole entry): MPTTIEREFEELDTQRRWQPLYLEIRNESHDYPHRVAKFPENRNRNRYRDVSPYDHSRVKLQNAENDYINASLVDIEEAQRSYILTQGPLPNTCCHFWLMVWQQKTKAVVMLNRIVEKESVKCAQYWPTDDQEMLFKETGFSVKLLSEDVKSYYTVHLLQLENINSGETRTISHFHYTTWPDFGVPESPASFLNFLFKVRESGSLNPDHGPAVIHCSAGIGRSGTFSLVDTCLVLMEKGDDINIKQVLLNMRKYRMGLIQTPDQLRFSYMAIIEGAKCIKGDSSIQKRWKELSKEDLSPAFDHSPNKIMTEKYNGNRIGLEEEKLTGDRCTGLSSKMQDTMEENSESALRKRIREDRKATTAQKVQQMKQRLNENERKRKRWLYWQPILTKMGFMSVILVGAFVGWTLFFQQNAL

Homo sapiens [6] = organism: Homo sapiens; test: Selectivity ratio of IC50 for recombinant SHP2 (unknown origin) to IC50 for recombinant PTP1B (unknown origin) expressed in Escherichia coli

SMILES | IC50 [4] [nM] | other results
CCOS(=O)(=O)/C=C/c1ccc(OCc2ccc(COc3ccc(/C=C/S(=O)(=O)OCC)cc3)c(C(=O)Nc3ccc(Oc4ccc(Cl)cc4)cc3)c2)cc1 | 400 | Ratio IC50 (Homo sapiens [1]): 5 to 9; IC50 [2]: 940 nM; Papp at 16 h, 20 µM [3]: 9.1 ×10⁻⁶ cm/s; IC50 [5]: 2970 nM
CCOS(=O)(=O)/C=C/c1ccc(OCc2ccc(COc3ccc(/C=C/S(=O)(=O)OCC)cc3)c(C(=O)Nc3ccc(Oc4ccc(F)cc4)cc3)c2)cc1 | 1300 | 
CCOS(=O)(=O)/C=C/c1ccc(OCc2ccc(COc3ccc(/C=C/S(=O)(=O)OCC)cc3)c(C(=O)Nc3ccc(Oc4ccc(C(F)(F)F)cc4)cc3)c2)cc1 | 820 | 
CCOS(=O)(=O)/C=C/c1ccc(OCOc2ccc(/C=C/S(=O)(=O)OCC)cc2)cc1 | 8700 | 
CCOS(=O)(=O)/C=C/c1ccc(OCCCCOc2ccc(/C=C/S(=O)(=O)OCC)cc2)cc1 | > 100000 | 
CCOS(=O)(=O)/C=C/c1ccc(OCc2ccc(COc3ccc(/C=C/S(=O)(=O)OCC)cc3)c(C(=O)Nc3ccc(Oc4ccc(CC)cc4)cc3)c2)cc1 | 190 | Ratio IC50 (Homo sapiens [1]): 5 to 9; IC50 [2]: 1100 nM; Ratio IC50 (Homo sapiens [6]): 5 to 6; Papp at 16 h, 20 µM [3]: 8.5 ×10⁻⁶ cm/s; IC50 [5]: 1320 nM
CC(C)NCC(O)COc1cccc2ccccc12 (stereo not given) [PROPRANOLOL] |  | Papp at 16 h, 20 µM [3]: 18.7 ×10⁻⁶ cm/s
CCOS(=O)(=O)/C=C/c1ccc(OCc2ccc(COc3ccc(/C=C/S(=O)(=O)OCC)cc3)c(C(=O)Nc3ccc(Oc4ccc5ccccc5c4)cc3)c2)cc1 | 790 | 
CCOS(=O)(=O)/C=C/c1ccc(OCc2ccc(COc3ccc(/C=C/S(=O)(=O)OCC)cc3)c(C(=O)Nc3ccc(Oc4ccc(-c5ccccc5)cc4)cc3)c2)cc1 | 140 | Ratio IC50 (Homo sapiens [1]): 5 to 9; IC50 [2]: 920 nM; Ratio IC50 (Homo sapiens [6]): 5 to 6; Papp at 16 h, 20 µM [3]: 9.7 ×10⁻⁶ cm/s; IC50 [5]: 1290 nM
CCOS(=O)(=O)/C=C/c1ccc(OCc2ccc(COc3ccc(/C=C/S(=O)(=O)OCC)cc3)c(C(=O)Nc3ccc(Oc4ccccc4C(F)(F)F)cc3)c2)cc1 | 870 | 
CCOS(=O)(=O)/C=C/c1ccc(OCc2ccc(COc3ccc(/C=C/S(=O)(=O)OCC)cc3)c(C(=O)Nc3ccc(C(C)C)cc3)c2)cc1 | 1300 | 
CCOS(=O)(=O)/C=C/c1ccc(OCc2ccc(COc3ccc(/C=C/S(=O)(=O)OCC)cc3)c(C(=O)Nc3ccc(Oc4ccc(C(C)(C)C)cc4)cc3)c2)cc1 | 910 | 
CCOS(=O)(=O)/C=C/c1ccc(OCc2ccc(COc3ccc(/C=C/S(=O)(=O)OCC)cc3)cc2)cc1 | 1200 | IC50 [2]: 4700 nM; IC50 [5]: 3390 nM
CCOS(=O)(=O)/C=C/c1ccc(OCc2ccc(COc3ccc(/C=C/S(=O)(=O)OCC)cc3)c(C(=O)Nc3ccc(Oc4ccccc4F)cc3)c2)cc1 | 850 | 
CCOS(=O)(=O)/C=C/c1ccc(OCCOc2ccc(/C=C/S(=O)(=O)OCC)cc2)cc1 | 3000 | 
CCOS(=O)(=O)/C=C/c1ccc(OCc2ccc(COc3ccc(/C=C/S(=O)(=O)OCC)cc3)c(C(=O)Nc3ccc(Oc4cccc(-c5ccccc5)c4)cc3)c2)cc1 | 1100 | 
CCOS(=O)(=O)/C=C/c1ccc(Oc2ccc(/C=C/S(=O)(=O)OCC)cc2)cc1 | 11800 | 
CCOS(=O)(=O)/C=C/c1ccc(OCc2ccc(COc3ccc(/C=C/S(=O)(=O)OCC)cc3)c(C(=O)Nc3ccc(Oc4cccc(C(F)(F)F)c4)cc3)c2)cc1 | 350 | Ratio IC50 (Homo sapiens [1]): 5 to 9; IC50 [2]: 1700 nM; Ratio IC50 (Homo sapiens [6]): 5 to 6; Papp at 16 h, 20 µM [3]: 6.9 ×10⁻⁶ cm/s; IC50 [5]: 1620 nM
CCOS(=O)(=O)/C=C/c1ccc(OCc2ccc(COc3ccc(/C=C/S(=O)(=O)OCC)cc3)c(C(=O)Nc3ccc(OC)cc3)c2)cc1 | 2600 | 
CCOS(=O)(=O)/C=C/c1ccc(OCc2ccc(COc3ccc(/C=C/S(=O)(=O)OCC)cc3)c(C(=O)Nc3ccc(Oc4ccc(C(C)C)cc4)cc3)c2)cc1 | 750 | 
CCOS(=O)(=O)/C=C/c1ccc(OCc2ccc(COc3ccc(/C=C/S(=O)(=O)OCC)cc3)c(C(=O)Nc3ccc(Oc4ccccc4)cc3)c2)cc1 | 860 | 
CCOS(=O)(=O)/C=C/c1ccc(OCCCOc2ccc(/C=C/S(=O)(=O)OCC)cc2)cc1 | 37300 | 
CCOS(=O)(=O)/C=C/c1ccc(OCc2ccc(COc3ccc(/C=C/S(=O)(=O)OCC)cc3)c(C(=O)Nc3ccccc3)c2)cc1 | 1400 | 
CCOS(=O)(=O)/C=C/c1ccc(OCc2ccc(COc3ccc(/C=C/S(=O)(=O)OCC)cc3)c(C(=O)Nc3ccc(Oc4ccc(Br)cc4Cl)cc3)c2)cc1 | 160 | Ratio IC50 (Homo sapiens [1]): 5 to 9; IC50 [2]: 1050 nM; Ratio IC50 (Homo sapiens [6]): 5 to 6; Papp at 16 h, 20 µM [3]: 12.6 ×10⁻⁶ cm/s; IC50 [5]: 1430 nM
CCOS(=O)(=O)/C=C/c1ccc(OCc2ccc(COc3ccc(/C=C/S(=O)(=O)OCC)cc3)c(C(=O)Nc3ccc(F)cc3)c2)cc1 | 1100 | 
CCOS(=O)(=O)/C=C/c1ccc(OC2CCC(Oc3ccc(/C=C/S(=O)(=O)OCC)cc3)CC2)cc1 (stereo not given) | 29200 | 
CCOS(=O)(=O)/C=C/c1ccc(OCc2ccc(COc3ccc(/C=C/S(=O)(=O)OCC)cc3)c(C(=O)OC)c2)cc1 | 3400 | 
CCOS(=O)(=O)/C=C/c1ccc(OCc2cccc(COc3ccc(/C=C/S(=O)(=O)OCC)cc3)c2)cc1 | 18400 | 
CCOS(=O)(=O)/C=C/c1ccc(OCc2ccc(COc3ccc(/C=C/S(=O)(=O)OCC)cc3)c(C(=O)O)c2)cc1 | 1300 | 
